# Reference: patent US6586216B2 (Purdue Research Foundation, priority 1997, dated 2003)
# Values joined by “and” are separate entries in the source; they are usually repeats but may differ in a detail not shown here. Identical values can stand only once. Like-named read-outs stand apart in the source and are kept apart here.
# What was measured:
# [1] = target: T1, glutamine PRPP amidotransferase S283A mutant enzyme (Bacillus subtilis, UniProt P00497, S294A); format: biochemical; conditions: for higher concentration required for 50% inhibition compared to wild type: ADP-GMP mixture
# T1 construct: Enzymes of the B. subtilis class are synthesized with an NH2 terminal propeptide and an Fe—S center; made in house; host or cells: E. coli strain TX158 (purF) with plasmid pBsF/S283A
# Procedure: (§1) Enzyme activity was assayed by measuring the initial rate of formation of the product glutamate. […] Incubation was at 37° C. for 6 min. […] Reactions were quenched in a boiling water bath for 2 min, and glutamate was determined by the glutamate dehydrogenase method.
# (§2) Inhibition by nucleotides was determined by the standard assay to which varied concentrations of nucleotide were added. Synergistic inhibition was determined by varying the concentration of one nucleotide in the presence of a fixed concentration of a second nucleotide. Relative activity (see FIG. 1) refers to the enzyme activity at a given concentration of the varied nucleotide relative to that in the absence of the varied nucleotide. I0.5 values were calculated from plots of relative activity versus varied nucleotide concentration.
# (§3) These modified forms of amidotransferase were analyzed to determine the impact of the mutations on end-product inhibition and enzymatic activity. Inhibition by nucleotides was determined as described in Example 1.
# [2] = target: T2, glutamine PRPP amidotransferase S347A mutant enzyme (Bacillus subtilis, UniProt P00497, S358A); format: biochemical
# T2 construct: Enzymes of the B. subtilis class are synthesized with an NH2 terminal propeptide and an Fe—S center; made in house; host or cells: E. coli strain TX158 (purF) with plasmid pBsF/S347A
# Procedure: as §1, §2, §3
# [3] = target: T3, Bacillus subtilis glutamine PRPP amidotransferase, wild type (Bacillus subtilis, UniProt P00497); assay: Nucleotide binding by equilibrium dialysis, wild type enzyme; conditions: for Capacity: at saturation
# T3 construct: Enzymes of the B. subtilis class are synthesized with an NH2 terminal propeptide; made in house; host or cells: E. coli strain TX158 (purF), plasmid pGZ1
# Procedure: Plasmid pGZ1 was used for production of the wild type enzyme. […] For construction of mutants, the EcoRI-HindIII purF^+ DNA was transferred to pUC118 to yield pBsF. […] The resulting plasmids were named pBsF/S283A, pBsF/K305Q, pBsF/R307Q, and pBsF/S347A.
# For enzyme purification, all buffers were sparged with nitrogen gas prior to use in order to minimize oxidation of the enzyme's Fe-S cluster. All steps were carried out at 4° C. Cells were resuspended in 4 mL/gram of buffer A [50 mM Tris-HCl (pH 8.0), 10 mM MgCl2, 0.1 mM EDTA, 5 mM DTT, and 2 mM AMP] containing 1 mM PMSF, and were disrupted by two passes through a French Press. The cell extract was obtained by centrifugation for 1 h at 27,000 g. Protamine sulfate (5 mg per gram of cells) was added to the extract to precipitate DNA. […] After centrifugation, enzyme in the brown pellet was recovered by extraction twice with 30% saturated ammonium sulfate. A small colorless pellet that remained was discarded, and the dark brown enzyme solution in buffer A containing residual ammonium sulfate was stored as beads in liquid nitrogen. […] For assays of activity, the enzyme was diluted 1:1000 in […] Tris-HCl (pH 8.0) containing 1 mg/mL bovine serum albumin. For measurements of ligand binding by equilibrium dialysis and for crystallization experiments, the enzyme was dialyzed anaerobically against buffer B [50 mM Tris-HCl (pH 8.0), 0.1 mM EDTA, and 5 mM DTT] prior to being used.
# Nucleotide binding was determined by equilibrium dialysis using chambers of 150 μL that were separated by a 12000-14000 molecular weight dialysis membrane. […] In some experiments, the chambers with radioactive nucleotide also contained a fixed concentration of a second non-radioactive nucleotide. The other chamber contained 50 mM Tris-HCl (pH 7.5) and 50-200 μM enzyme, calculated as the subunit concentration, in a volume of 100 μL. Dialysis was carried out for 20 h at room temperature (˜22° C.) in a rotating apparatus. Samples of 80 μL were retrieved from each chamber and were counted for radioactivity. All experiments were performed in an anaerobic glovebox. […] Equilibrium binding data were fit to the Hill equation (Y=C [free ligand]^n/[…]+[free ligand]^n, where Y is the fractional saturation, C is the binding capacity, Kd is the dissociation constant, and n is the Hill coefficient) by nonlinear regression using Ultrafit software (Biosoft, Cambridge, UK).
# [4] = target: T4, Bacillus subtilis glutamine PRPP amidotransferase variant R307Q (Bacillus subtilis, UniProt P00497, R318Q); assay: Inhibition of enzyme activity (glutamate formation) by nucleotides, mutant R307Q; format: biochemical
# T4 construct: Enzymes of the B. subtilis class are synthesized with an NH2 terminal propeptide; made in house; host or cells: E. coli strain TX158 (purF), plasmid pBsF/R307Q
# Excerpt: (§4) Plasmid pGZ1 was used for production of the wild type enzyme. Plasmid pGZ1 contains a 1.6 kb EcoRI-HindIII purF^+ fragment (Makaroff, C. A., Zalkin, H., Switzer, R. L., and Vollmer, S. J. (1983) J. Biol. Chem. 258, pp. 10586-10593) inserted into the corresponding sites of pUC18. For construction of mutants, the EcoRI-HindIII purF^+ DNA was transferred to pUC118 to yield pBsF. Mutations were constructed by the method of Kunkel et al. (Kunkel, T. A., Roberts, J. D., and Zakour, R. A. (1987) Methods Enzymol. 154, pp. 367-382) using pBsF phagemid DNA. The resulting plasmids were named pBsF/S283A, pBsF/K305Q, pBsF/R307Q, and pBsF/S347A.
# (§5) Enzyme activity was assayed by measuring the initial rate of formation of the product glutamate. […] Incubation was at 37° C. for 6 min. The reaction was linear with time for at least 20 min under these conditions of assay. Reactions were quenched in a boiling water bath for 2 min, and glutamate was determined by the glutamate dehydrogenase method. The control reaction mixture contained all the components except PRPP.
# as §2
# as §3, with “Site directed mutagenesis was utilized to modify amino acids comprising the A site and C site domains of the glutamine PRPP amidotransferase. These” for “These”
# [5] = target: T5, Bacillus subtilis glutamine PRPP amidotransferase variant S283A (Bacillus subtilis, UniProt P00497, S294A); assay: Inhibition of enzyme activity (glutamate formation) by nucleotides, mutant S283A; format: biochemical; conditions: for increase of concentration for 50% inhibition relative to wild type: ADP-GMP mixture
# T5 construct: Enzymes of the B. subtilis class are synthesized with an NH2 terminal propeptide; made in house; host or cells: E. coli strain TX158 (purF), plasmid pBsF/S283A
# Excerpt: as §4, §5, §2
# as §3, with “Site directed mutagenesis was utilized to modify amino acids comprising the A site and C site domains of the glutamine PRPP amidotransferase. These” for “These”
# [6] = no fixed nucleotide, pH 7.5, ~22° C., half-saturation of the two sites, read-out: Kd (apparent)
# [7] = I0.5, no fixed nucleotide, 2.5 mM PRPP, pH 8.0, 37° C.
# T2 sequence (P00497 12-476 S358A): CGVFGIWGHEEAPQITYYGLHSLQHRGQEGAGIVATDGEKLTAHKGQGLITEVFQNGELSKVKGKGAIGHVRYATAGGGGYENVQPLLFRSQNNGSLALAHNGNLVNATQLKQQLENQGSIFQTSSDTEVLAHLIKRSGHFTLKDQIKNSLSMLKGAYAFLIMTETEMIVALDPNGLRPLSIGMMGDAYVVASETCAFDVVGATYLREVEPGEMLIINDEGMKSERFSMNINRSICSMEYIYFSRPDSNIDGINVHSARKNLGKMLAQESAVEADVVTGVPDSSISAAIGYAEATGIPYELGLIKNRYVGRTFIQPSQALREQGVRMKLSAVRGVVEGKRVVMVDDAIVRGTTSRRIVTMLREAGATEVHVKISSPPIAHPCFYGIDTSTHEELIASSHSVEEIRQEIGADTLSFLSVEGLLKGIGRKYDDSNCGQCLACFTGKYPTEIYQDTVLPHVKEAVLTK
# T5 sequence (P00497 12-476 S294A): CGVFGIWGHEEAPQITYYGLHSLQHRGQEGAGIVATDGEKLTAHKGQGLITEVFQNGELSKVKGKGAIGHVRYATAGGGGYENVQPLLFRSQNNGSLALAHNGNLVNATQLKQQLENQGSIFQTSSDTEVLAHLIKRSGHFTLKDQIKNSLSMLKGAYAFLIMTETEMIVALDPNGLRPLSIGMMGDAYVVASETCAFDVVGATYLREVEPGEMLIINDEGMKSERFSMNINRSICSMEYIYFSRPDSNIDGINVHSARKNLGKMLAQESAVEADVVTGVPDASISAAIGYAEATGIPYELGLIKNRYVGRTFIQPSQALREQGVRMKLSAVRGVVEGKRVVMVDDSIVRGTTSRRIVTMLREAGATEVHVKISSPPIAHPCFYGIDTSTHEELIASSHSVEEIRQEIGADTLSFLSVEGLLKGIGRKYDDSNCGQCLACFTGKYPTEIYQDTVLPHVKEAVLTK
# T1 sequence (P00497 12-476 S294A): as above
# T3 sequence (P00497 12-476): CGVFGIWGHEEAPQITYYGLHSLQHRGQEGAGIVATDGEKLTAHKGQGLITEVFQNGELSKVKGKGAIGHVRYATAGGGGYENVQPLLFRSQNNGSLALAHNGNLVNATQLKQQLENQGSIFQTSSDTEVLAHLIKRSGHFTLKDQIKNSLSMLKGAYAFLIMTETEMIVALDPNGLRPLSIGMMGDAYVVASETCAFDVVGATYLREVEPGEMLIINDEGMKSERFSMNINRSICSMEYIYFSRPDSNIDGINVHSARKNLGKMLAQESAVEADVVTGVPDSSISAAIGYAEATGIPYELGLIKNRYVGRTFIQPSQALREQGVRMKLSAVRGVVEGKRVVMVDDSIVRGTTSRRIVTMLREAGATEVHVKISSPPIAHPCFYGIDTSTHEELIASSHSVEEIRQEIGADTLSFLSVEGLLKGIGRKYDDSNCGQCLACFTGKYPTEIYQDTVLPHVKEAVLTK
# T4 sequence (P00497 12-476 R318Q): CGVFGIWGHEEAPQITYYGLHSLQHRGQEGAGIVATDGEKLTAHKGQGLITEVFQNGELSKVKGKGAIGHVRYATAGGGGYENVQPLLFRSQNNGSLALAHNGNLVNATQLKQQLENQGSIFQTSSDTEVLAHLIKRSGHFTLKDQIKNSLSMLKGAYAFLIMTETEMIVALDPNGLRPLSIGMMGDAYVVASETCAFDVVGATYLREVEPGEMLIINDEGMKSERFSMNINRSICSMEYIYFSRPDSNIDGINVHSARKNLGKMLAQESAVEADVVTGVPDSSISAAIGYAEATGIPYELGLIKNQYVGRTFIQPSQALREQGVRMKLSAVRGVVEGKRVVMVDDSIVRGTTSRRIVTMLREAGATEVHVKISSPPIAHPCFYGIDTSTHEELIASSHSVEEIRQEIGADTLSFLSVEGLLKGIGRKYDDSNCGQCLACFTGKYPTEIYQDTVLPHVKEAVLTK
smiles,measurement,setting,value
Nc1ncnc2c1ncn2[C@@H]1O[C@H](COP(=O)(O)OP(=O)(O)O)[C@@H](O)[C@H]1O [ADP],higher concentration required for 50% inhibition compared to wild type,[1],30 fold
same,syn.,[1]; fixed GMP 0.50 mM,5.0
same,syn.,[2]; fixed GMP 1.4 mM (footnote c),37.0
same,decrease of Kd in the presence of GMP,[3]; GMP present,20 fold
same,Kd,"[3]; Kd, GMP fixed at either 0.25 or 1.0 mM",~10 µM
same,Capacity,[3]; fixed GMP 0.25 mM,0.82 ± 0.11 Equivalents bound per subunit
same,Kd,"[3]; fixed GMP 0.25 mM, read-out: Kd",10.4 ± 2.7 µM
same,Capacity,[3]; fixed GMP 1.0 mM,0.94 ± 0.14 Equivalents bound per subunit
same,Kd,"[3]; fixed GMP 1.0 mM, read-out: Kd",11 µM
same,Hill coefficient,[3]; no fixed nucleotide,1.8
same,Capacity,[3]; no fixed nucleotide,1.83 Equivalents bound per subunit and 1.83 ± 0.26 Equivalents bound per subunit
same,Kd,[3]; [6],214 µM and ~214 µM
same,IC50,"[4]; I0.5, fixed GMP 0.50 mM",2400 µM
same,IC50,"[4]; I0.5, fixed GMP 5.0 mM",180 µM
same,IC50,[4]; [7],28000 µM
same,syn. (decreased I0.5 due to a second nucleotide),[4]; fixed GMP 0.50 mM,12.0 fold
same,syn. (decreased I0.5 due to a second nucleotide),[4]; fixed GMP 5.0 mM,156.0 fold
same,increase of concentration for 50% inhibition relative to wild type,[5],30 fold
same,IC50,"[5]; I0.5, fixed GMP 0.50 mM",4800 µM
same,IC50,[5]; [7],24000 µM
same,syn. (decreased I0.5 due to a second nucleotide),[5]; fixed GMP 0.50 mM,5.0 fold
same,I0.5 increase relative to wild type,[5]; no fixed nucleotide,5-7 fold
same,decreased inhibition relative to wild type,[5]; no fixed nucleotide,5-7 fold
Nc1ncnc2c1ncn2[C@@H]1O[C@H](COP(=O)(O)O)[C@@H](O)[C@H]1O [AMP],syn.,[2]; fixed ADP 0.8 mM (footnote c),2.3
same,syn.,[2]; fixed GMP 1.4 mM (footnote c),0.8
same,Capacity,[3]; fixed ADP 0.25 mM,0.94 ± 0.16 Equivalents bound per subunit
same,Kd,"[3]; fixed ADP 0.25 mM, read-out: Kd",77 µM
same,Capacity,[3]; fixed ADP 0.5 mM,approximately 0.4 Equivalents bound per subunit
same,Capacity,[3]; fixed GMP 1.0 mM,1.05 ± 0.21 Equivalents bound per subunit
same,Kd,"[3]; fixed GMP 1.0 mM, read-out: Kd",103 µM
same,increase of binding affinity by GMP or ADP,[3]; fixed GMP or ADP,2-3 fold
same,Hill coefficient,[3]; no fixed nucleotide,3.4
same,Capacity,[3]; no fixed nucleotide,1.57 Equivalents bound per subunit and 1.57 ± 0.27 Equivalents bound per subunit
same,Kd,[3]; [6],240 µM and 239 µM
same,IC50,[4]; [7],2600 µM
same,IC50,[5]; [7],6100 µM
same,I0.5 increase relative to wild type,[5]; no fixed nucleotide,5-7 fold
same,decreased inhibition relative to wild type,[5]; no fixed nucleotide,5-7 fold
Nc1nc2c(ncn2[C@@H]2O[C@H](COP(=O)(O)O)[C@@H](O)[C@H]2O)c(=O)[nH]1 [GMP],higher concentration required for 50% inhibition compared to wild type,[1],13 fold
same,syn.,[1]; fixed ADP 0.5 mM,3.3
same,syn.,[1]; fixed ADP 2.5 mM,3.9
same,I0.5 increase relative to wild type,[1]; single nucleotide,similar
same,syn.,[2]; fixed ADP 0.8 mM (footnote c),33.0
same,I0.5 increase compared to wild type,"[2]; inhibition at the C site, ADP fixed",3 fold
same,increased binding affinity (C site) relative to AMP,[3]; ADP bound to the A site,3 fold
same,increased binding affinity (C site) relative to IMP,[3]; ADP bound to the A site,3 fold
same,Kd,"[3]; Kd, fixed ADP 0.5 mM",25 µM
same,Kd,"[3]; Kd, no fixed nucleotide, not detected",> 500 µM
same,"Kd for the free enzyme, estimated",[3]; assuming a synergism of 20-fold,approximately 500 μM
same,Capacity,[3]; fixed ADP 0.5 mM,0.98 ± 0.10 Equivalents bound per subunit
same,Kd,"[3]; no fixed nucleotide, binding too weak to detect, read-out: Kd",> 500 µM
same,IC50,"[4]; I0.5, fixed ADP 0.5 mM",3300 µM
same,IC50,"[4]; I0.5, fixed ADP 2.5 mM",760 µM
same,IC50,[4]; [7],50000 µM
same,syn. (decreased I0.5 due to a second nucleotide),[4]; fixed ADP 0.5 mM,15.0 fold
same,syn. (decreased I0.5 due to a second nucleotide),[4]; fixed ADP 2.5 mM,66.0 fold
same,increase of concentration for 50% inhibition relative to wild type,[5],13 fold
same,IC50,"[5]; I0.5, fixed ADP 0.5 mM",2000 µM
same,IC50,"[5]; I0.5, fixed ADP 2.5 mM",1700 µM
same,IC50,[5]; [7],6600 µM
same,syn. (decreased I0.5 due to a second nucleotide),[5]; fixed ADP 0.5 mM,3.3 fold
same,syn. (decreased I0.5 due to a second nucleotide),[5]; fixed ADP 2.5 mM,3.9 fold
same,inhibition compared with wild type,[5]; no fixed nucleotide,similar
